What was measured:
Type in all cases: functional
Phytophthora infestans = test: Fungicidal activity against Phytophthora infestans zoosporangia infected on foliar spray based compound pre-treated 14 days old tomato plants assessed as tomato late blight disease control level at 250 ppm measured 4 days post fungal exposure relative to untreated control
Blumeria graminis = test: Fungicidal activity against Blumeria graminis infected on foliar spray based compound pre-treated first-leaf stage 7 day old barley plants assessed as barley powdery mildew disease control level at 250 ppm measured 7 days post fungal exposure relative to untreated control
Puccinia recondita [1] = test: Fungicidal activity against Puccinia recondita infected foliar spray based compound pre-treated first-leaf stage wheat plants assessed as wheat leaf rust disease control level at 250 ppm measured 10 days post fungal exposure relative to untreated control
Rhizoctonia solani = test: Fungicidal activity against Rhizoctonia solani infected on foliar spray based compound pre-treated third-leaf stage rice plants assessed as rice sheath blight disease control level at 250 ppm measured 5 days post fungal exposure relative to untreated control
Botrytis cinerea = test: Fungicidal activity against Botryotinia fuckeliana infected foliar spray based compound pre-treated first-leaf stage cucumber plants assessed as cucumber gray mold disease control level at 250 ppm measured 4 to 5 days post fungal exposure relative to untreated control
Puccinia recondita [2] = test: Fungicidal activity against Puccinia recondita infected foliar spray based compound pre-treated first-leaf stage wheat plants assessed as wheat leaf rust disease control level at 2 ppm measured 10 days post fungal exposure relative to untreated control
Puccinia recondita [3] = test: Fungicidal activity against Puccinia recondita infected foliar spray based compound pre-treated first-leaf stage wheat plants assessed as wheat leaf rust disease control level at 10 ppm measured 10 days post fungal exposure relative to untreated control
Puccinia recondita [4] = test: Fungicidal activity against Puccinia recondita infected foliar spray based compound pre-treated first-leaf stage wheat plants assessed as wheat leaf rust disease control level at 50 ppm measured 10 days post fungal exposure relative to untreated control

Clc1ccccc1C1OCCc2c1noc2COC1CCCCO1 (stereo not drawn)
Activity (Phytophthora infestans): 0% | Activity (Blumeria graminis): 16% | Activity (Puccinia recondita [1]): 86% | Activity (Rhizoctonia solani): 47% | Activity (Botrytis cinerea): 0%

OCc1onc2c1CCOC2c1ccccc1Cl (stereo not drawn)
Activity (Phytophthora infestans): 0% | Activity (Blumeria graminis): 0% | Activity (Puccinia recondita [1]): 10% | Activity (Rhizoctonia solani): 0% | Activity (Botrytis cinerea): 0%

O=Cc1onc2c1CCOC2c1ccccc1Cl (stereo not drawn)
Activity (Phytophthora infestans): 21% | Activity (Blumeria graminis): 83% | Activity (Puccinia recondita [1]): 53% | Activity (Rhizoctonia solani): 17% | Activity (Botrytis cinerea): 0%

Clc1ccccc1C1OCCc2c1noc2CBr (stereo not drawn)
Activity (Phytophthora infestans): 7% | Activity (Blumeria graminis): 16% | Activity (Puccinia recondita [1]): 97% | Activity (Rhizoctonia solani): 41% | Activity (Botrytis cinerea): 52%

ON=Cc1onc2c1CCOC2c1ccccc1Cl (stereo not drawn)
Activity (Phytophthora infestans): 42% | Activity (Blumeria graminis): 0% | Activity (Puccinia recondita [1]): 0% | Activity (Rhizoctonia solani): 52% | Activity (Botrytis cinerea): 5%

CON=Cc1onc2c1CCOC2c1ccccc1Cl (stereo not drawn)
Activity (Phytophthora infestans): 50% | Activity (Blumeria graminis): 41% | Activity (Puccinia recondita [1]): 0% | Activity (Rhizoctonia solani): 29% | Activity (Botrytis cinerea): 0%

Clc1ccc(C2OCCc3c2noc3COC2CCCCO2)cc1 (stereo not drawn)
Activity (Phytophthora infestans): 9% | Activity (Blumeria graminis): 0% | Activity (Puccinia recondita [1]): 0% | Activity (Rhizoctonia solani): 0% | Activity (Botrytis cinerea): 0%

OCc1onc2c1CCOC2c1ccc(Cl)cc1 (stereo not drawn)
Activity (Phytophthora infestans): 2% | Activity (Blumeria graminis): 3% | Activity (Puccinia recondita [1]): 0% | Activity (Rhizoctonia solani): 0% | Activity (Botrytis cinerea): 0%

O=Cc1onc2c1CCOC2c1ccc(Cl)cc1 (stereo not drawn)
Activity (Phytophthora infestans): 19% | Activity (Blumeria graminis): 0% | Activity (Puccinia recondita [1]): 0% | Activity (Rhizoctonia solani): 0% | Activity (Botrytis cinerea): 30%

Clc1ccc(C2OCCc3c2noc3CBr)cc1 (stereo not drawn)
Activity (Puccinia recondita [2]): 50% | Activity (Puccinia recondita [3]): 53% | Activity (Phytophthora infestans): 22% | Activity (Blumeria graminis): 50% | Activity (Puccinia recondita [4]): 90% | Activity (Puccinia recondita [1]): 100% | Activity (Rhizoctonia solani): 0% | Activity (Botrytis cinerea): 0%

CCON=Cc1onc2c1CCOC2c1ccccc1Cl (mixture of isomers)
Activity (Phytophthora infestans): 78% | Activity (Blumeria graminis): 91% | Activity (Puccinia recondita [1]): 76% | Activity (Rhizoctonia solani): 64% | Activity (Botrytis cinerea): 5%

C=CCON=Cc1onc2c1CCOC2c1ccccc1Cl (mixture of isomers)
Activity (Phytophthora infestans): 14% | Activity (Blumeria graminis): 80% | Activity (Puccinia recondita [1]): 46% | Activity (Rhizoctonia solani): 17% | Activity (Botrytis cinerea): 0%

ON=Cc1onc2c1CCOC2c1ccc(Cl)cc1 (mixture of isomers)
Activity (Phytophthora infestans): 10% | Activity (Blumeria graminis): 0% | Activity (Puccinia recondita [1]): 86% | Activity (Rhizoctonia solani): 45% | Activity (Botrytis cinerea): 0%

CON=Cc1onc2c1CCOC2c1ccc(Cl)cc1 (mixture of isomers)
Activity (Phytophthora infestans): 0% | Activity (Blumeria graminis): 96% | Activity (Puccinia recondita [1]): 12% | Activity (Rhizoctonia solani): 65% | Activity (Botrytis cinerea): 28%

CCON=Cc1onc2c1CCOC2c1ccc(Cl)cc1 (mixture of isomers)
Activity (Phytophthora infestans): 14% | Activity (Blumeria graminis): 81% | Activity (Puccinia recondita [1]): 52% | Activity (Rhizoctonia solani): 55% | Activity (Botrytis cinerea): 10%

C=CCON=Cc1onc2c1CCOC2c1ccc(Cl)cc1 (mixture of isomers)
Activity (Phytophthora infestans): 7% | Activity (Blumeria graminis): 100% | Activity (Puccinia recondita [1]): 96% | Activity (Rhizoctonia solani): 75% | Activity (Botrytis cinerea): 10%
